# According to ChEMBL document CHEMBL1201862, “PubChem BioAssay data set” (2004):
# Calls of active or inactive are those of the source.
# Legend:
# Coagulation factor XII [1] = biological target: T1, Coagulation factor XII (Homo sapiens, UniProt P00748); assay: Factor XIIa Dose Response Confirmation from Single Well HTS. [Related pubchem assays (depositor defined):AID701]; format: functional
# T1 sequence (P00748 whole entry): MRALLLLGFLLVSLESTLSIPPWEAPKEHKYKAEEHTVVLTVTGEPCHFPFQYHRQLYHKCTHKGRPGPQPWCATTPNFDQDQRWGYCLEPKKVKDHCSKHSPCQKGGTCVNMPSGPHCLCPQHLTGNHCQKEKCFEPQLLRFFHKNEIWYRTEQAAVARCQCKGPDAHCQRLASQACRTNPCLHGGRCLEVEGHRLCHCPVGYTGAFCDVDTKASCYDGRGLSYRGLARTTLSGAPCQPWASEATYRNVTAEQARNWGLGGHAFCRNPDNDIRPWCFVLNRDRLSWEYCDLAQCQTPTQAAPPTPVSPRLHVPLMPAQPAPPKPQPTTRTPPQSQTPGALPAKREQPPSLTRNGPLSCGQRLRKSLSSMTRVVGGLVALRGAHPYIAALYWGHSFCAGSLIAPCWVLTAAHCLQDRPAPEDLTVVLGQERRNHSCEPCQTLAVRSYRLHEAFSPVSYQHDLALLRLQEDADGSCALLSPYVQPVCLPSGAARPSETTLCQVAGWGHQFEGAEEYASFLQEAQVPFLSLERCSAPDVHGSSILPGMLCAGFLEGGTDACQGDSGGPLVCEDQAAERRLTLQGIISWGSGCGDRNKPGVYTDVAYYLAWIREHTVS
# Vero [2] = assay: Vero 76 cell viability after compound exposure – Vero 76 cells, synthesized analogs, cytotoxicity control for West Nile virus antiviral project, SAR follow-up (AID 2414); format: functional; settings: Chlorocebus sabaeus
# Vero [3] = assay: host cell viability loss, Vero E6 – synthesized analogs, cytotoxicity control for West Nile virus antiviral project, SAR follow-up (AID 2244); format: functional; settings: Chlorocebus sabaeus
# Vero [4] = assay: antiviral protection of cells from WNV – synthesized analogs, SAR follow-up (AID 2238); format: functional, cell-based; settings: Chlorocebus sabaeus
# Coagulation factor XII [5] = biological target: T1, Coagulation factor XII; assay: activated coagulation factor XII inhibitor potency, concentration-effect curve, cell-free (AID 716); format: functional
# [6] = biological target: G-protein coupled receptor 55 (Homo sapiens, UniProt Q9Y2T6); assay: inhibition of LPI-stimulated GPR55 beta-arrestin translocation – imaging, U2OS, beta-arrestin-GFP, LPI agonist, primary screen (AID 2013); format: functional;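 note: antagonist potency measured as reduced agonist-driven arrestin aggregation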
# Sequence of G-protein coupled receptor 55 (Q9Y2T6 whole entry): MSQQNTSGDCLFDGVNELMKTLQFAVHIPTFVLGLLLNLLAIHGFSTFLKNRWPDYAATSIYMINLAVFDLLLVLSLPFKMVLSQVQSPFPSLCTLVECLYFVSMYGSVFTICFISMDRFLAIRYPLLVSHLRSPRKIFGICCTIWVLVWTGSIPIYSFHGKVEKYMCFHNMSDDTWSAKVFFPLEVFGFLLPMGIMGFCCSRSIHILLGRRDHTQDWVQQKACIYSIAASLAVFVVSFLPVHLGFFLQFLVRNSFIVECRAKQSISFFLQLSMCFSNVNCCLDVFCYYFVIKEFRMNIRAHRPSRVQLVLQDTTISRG
smiles,measurement,setting,value
Cc1ccc(NC(=O)C2(S(=O)(=O)c3ccc(C)cc3)CC2)cc1,IC50,Coagulation factor XII [1],> 50 µM (inactive)
O=C(CSc1nc2ccccc2c(=O)n1-c1ccccc1)Nc1ccc2c(c1)CCC2,CC50,Vero [2],> 66.6 µM (active)
same,CC50,Vero [3],> 40 µM (active)
same,IC50,Vero [4],15.5 µM (active)
Cc1c(C(=O)OCCOC(C)C)[nH]c2c1C(=O)CC(C)(C)C2,IC50,Coagulation factor XII [5],> 50 µM (inactive)
N#C/C(=C/c1c[nH]nc1-c1cccc(Br)c1)C(=O)O,IC50,[6],1.12 µM (active)
